Source: US6559101B2, “N- (5, 7-dimethoxy [1, 2, 4] triazolo [1, 5-a] pyrimidin-2-yl) arylsulfonamide compounds and their use as herbicides” (Dow AgroSciences LLC, priority 2000, dated 2003)

What was measured:
Format in all cases: in vivo
[1] = tested on: Rox orange sorghum (Sorghum bicolor); experiment: Postemergence herbicidal activity; conditions: scored after 2 weeks, 0 no injury, 100 complete kill
Method: (§1) Seeds of the desired test plant species were planted in Grace-Sierra MetroMix® 306 planting mixture, which typically has a pH of 6.0 to 6.8 and an organic matter content of about 30 percent, in plastic pots with a surface area of 64 square centimeters. When required to ensure good germination and healthy plants, a fungicide treatment and/or other chemical or physical treatment was applied. The plants were grown for 7-21 days in a greenhouse with an approximately 15 hr photoperiod which was maintained at about 23-29° C. during the day and 22-28° C. during the night. Nutrients and water were added on a regular basis and supplemental lighting was provided with overhead metal halide 1000 Watt lamps as necessary. The plants were employed for testing when they reached the first or second true leaf stage. A weighed amount of each test compound, determined by the highest rate to be tested, was placed in a 20 mL glass vial and was dissolved in 4 mL of a 97:3 v/v (volume/volume) mixture of acetone and dimethyl sulfoxide to obtain concentrated stock solutions. […] The concentrated stock solutions obtained were diluted with an aqueous mixture containing acetone, water, iso-propyl alcohol, dimethyl sulfoxide, Atplus 411F crop oil concentrate, and Triton X-155 surfactant (methylenebisdiamyl phenoxy polyethoxy ethanol) in a 48.5:39:10:1.5:1.0:0.02 v/v ratio to obtain spray solutions of known concentration. The solutions containing the highest concentration to be tested were prepared by diluting 2 mL aliquots of the stock solution with 13 mL of the mixture and lower concentrations were prepared by dilution of appropriate smaller portions of the stock solution. Approximately 1.5 mL aliquots of each solution of known concentration were sprayed evenly onto each of the test plant pots using a Devilbiss atomizer driven by compressed air pressure of 2 to 4 psi (140 to 280 kiloPascals) to obtain thorough coverage of each plant. Control plants were sprayed in the same manner with the aqueous mixture. In this test an application rate of 1 ppm results in the application of approximately 1 g/ha. The treated plants and control plants were placed in a greenhouse as described above and watered by sub-irrigation to prevent wash-off of the test compounds. After 2 weeks the condition of the test plants as compared with that of the untreated plants was determined visually and scored on a scale of 0 to 100 percent where 0 corresponds to no injury and 100 corresponds to complete kill.

[2] = tested on: blackgrass (Alopecurus myosuroides); experiment: Postemergence herbicidal activity; conditions: scored after 2 weeks, 0 no injury, 100 complete kill
Method: as §1

[3] = tested on: chickweed (Stellaria media); experiment: Postemergence herbicidal activity; conditions: scored after 2 weeks, 0 no injury, 100 complete kill
Method: as §1

[4] = tested on: cocklebur (Xanthium strumarium); experiment: Postemergence herbicidal activity; conditions: scored after 2 weeks, 0 no injury, 100 complete kill
Method: as §1

[5] = tested on: giant foxtail (Setaria faberi); experiment: Postemergence herbicidal activity; conditions: scored after 2 weeks, 0 no injury, 100 complete kill
Method: as §1

[6] = tested on: lambsquarters (Chenopodium album); experiment: Postemergence herbicidal activity; conditions: scored after 2 weeks, 0 no injury, 100 complete kill
Method: as §1

[7] = tested on: morningglory (Ipomoea hederacea); experiment: Postemergence herbicidal activity; conditions: scored after 2 weeks, 0 no injury, 100 complete kill
Method: as §1

[8] = tested on: pigweed (Amaranthus retroflexus); experiment: Postemergence herbicidal activity; conditions: scored after 2 weeks, 0 no injury, 100 complete kill
Method: as §1

[9] = tested on: velvetleaf (Abutilion theophrasti); experiment: Postemergence herbicidal activity; conditions: scored after 2 weeks, 0 no injury, 100 complete kill
Method: as §1

viola (Viola tricolor) = experiment: Postemergence herbicidal activity; conditions: scored after 2 weeks, 0 no injury, 100 complete kill
Method: as §1

[10] = tested on: wild buckwheat (Polygonum convolvulus); experiment: Postemergence herbicidal activity; conditions: scored after 2 weeks, 0 no injury, 100 complete kill
Method: as §1

wild oats (Avena fatua) [11] = experiment: Postemergence herbicidal activity; conditions: scored after 2 weeks, 0 no injury, 100 complete kill
Method: as §1

[12] = tested on: Rox orange sorghum (Sorghum bicolor); experiment: Preemergence herbicidal activity; conditions: scored after 3 weeks, 0 no injury, 100 complete kill or no germination
Method: (§2) The soil matrix was contained in plastic pots with a surface area of 161 square centimeters. When required to ensure good germination and healthy plants, a fungicide treatment and/or other chemical or physical treatment was applied. A weighed amount, determined by the highest rate to be tested, of each test compound was placed in a 20 mL glass vial and was dissolved in 8 mL of a 97:3 v/v (volume/volume) mixture of acetone and dimethyl sulfoxide to obtain concentrated stock solutions. […] The stock solutions obtained were diluted with a 99.9:0.1 mixture of water and Tween® 155 surfactant (ethoxylated sorbitan fatty acid ester) to obtain application solutions of known concentration. The solutions containing the highest concentration to be tested were prepared by diluting 4 mL aliquots of the stock solution with 8.5 mL of the mixture and lower concentrations were prepared by dilution of appropriate smaller portions of the stock solution. A 2.5 mL aliquot of each solution of known concentration was sprayed evenly onto the soil of each seeded pot using a Cornwall 5.0 mL glass syringe fitted with a TeeJet TN-3 hollow cone nozzle to obtain thorough coverage of the soil in each pot. Control pots were sprayed in the same manner with the aqueous mixture. A highest application rate of 4.48 kg/ha is achieved when 50 mg of test compound is employed. The treated pots and control pots were placed in a greenhouse with an approximately 15 hr photoperiod which was maintained at about 23-29° C. during the day and 22-28° C. during the night. Nutrients and water were added on a regular basis and supplemental lighting was provided with overhead metal halide 1000 Watt lamps as necessary. The water was added by top-irrigation. After 3 weeks the condition of the test plants that germinated and grew as compared with that of the untreated plants that germinated and grew was determined visually and scored on a scale of 0 to 100 percent where 0 corresponds to no injury and 100 corresponds to complete kill or no germination.

[13] = tested on: barnyardgrass (Echinochloa crus-galli); experiment: Preemergence herbicidal activity; conditions: scored after 3 weeks, 0 no injury, 100 complete kill or no germination
Method: as §2

[14] = tested on: blackgrass (Alopecurus myosuroides); experiment: Preemergence herbicidal activity; conditions: scored after 3 weeks, 0 no injury, 100 complete kill or no germination
Method: as §2

[15] = tested on: cocklebur (Xanthium strumarium); experiment: Preemergence herbicidal activity; conditions: scored after 3 weeks, 0 no injury, 100 complete kill or no germination
Method: as §2

[16] = tested on: crabgrass (Digitaria sanguinalis); experiment: Preemergence herbicidal activity; conditions: scored after 3 weeks, 0 no injury, 100 complete kill or no germination
Method: as §2

[17] = tested on: giant foxtail (Setaria faberi); experiment: Preemergence herbicidal activity; conditions: scored after 3 weeks, 0 no injury, 100 complete kill or no germination
Method: as §2

[18] = tested on: lambsquarters (Chenopodium album); experiment: Preemergence herbicidal activity; conditions: scored after 3 weeks, 0 no injury, 100 complete kill or no germination
Method: as §2

[19] = tested on: morningglory (Ipomoea hederacea); experiment: Preemergence herbicidal activity; conditions: scored after 3 weeks, 0 no injury, 100 complete kill or no germination
Method: as §2

[20] = tested on: pigweed (Amaranthus retroflexus); experiment: Preemergence herbicidal activity; conditions: scored after 3 weeks, 0 no injury, 100 complete kill or no germination
Method: as §2

[21] = tested on: velvetleaf (Abutilion theophrasti); experiment: Preemergence herbicidal activity; conditions: scored after 3 weeks, 0 no injury, 100 complete kill or no germination
Method: as §2

wild oats (Avena fatua) [22] = experiment: Preemergence herbicidal activity; conditions: scored after 3 weeks, 0 no injury, 100 complete kill or no germination
Method: as §2

[23] = tested on: wild poinsettia (Euphorbia heterophylla); experiment: Preemergence herbicidal activity; conditions: scored after 3 weeks, 0 no injury, 100 complete kill or no germination
Method: as §2

For `CCOc1cccc(C(F)(F)F)c1S(=O)(=O)Nc1nc2nc(OC)cc(OC)n2n1` [Compound 14, N-(5,7-dimethoxy[1,2,4]triazolo[1,5-a]-pyrimidin-2-yl)-2-ethoxy-6-(trifluoromethyl)benzenesulfonamide], the “Postemergence herbicidal activity SORBI” value ([1]; 7.8 ppm) was 70%, the “Postemergence herbicidal activity ALOMY” value ([2]; 7.8 ppm) was 70% and the “Postemergence herbicidal activity STEME” value ([3]; 7.8 ppm) was 98%. The “Postemergence herbicidal activity XANST” value ([4]; 7.8 ppm) was 100%, the “Postemergence herbicidal activity SETFA” value ([5]; 7.8 ppm) was 90% and the “Postemergence herbicidal activity CHEAL” value ([6]; 7.8 ppm) was 100%. The “Postemergence herbicidal activity IPOHE” value ([7]; 7.8 ppm) was 80%, the “Postemergence herbicidal activity AMARE” value ([8]; 7.8 ppm) was 100% and the “Postemergence herbicidal activity ABUTH” value ([9]; 7.8 ppm) was 90%. The “Postemergence herbicidal activity VIOTR” value (viola (Viola tricolor); 7.8 ppm) was 90%, the “Postemergence herbicidal activity POLCO” value ([10]; 7.8 ppm) was 90% and the “Postemergence herbicidal activity AVEFA” value (wild oats (Avena fatua) [11]; 7.8 ppm) was 50%. For the same molecule, the “Preemergence herbicidal activity SORBI” value ([12]; 17.5 g/Ha) was 85%, the “Preemergence herbicidal activity ECHCG” value ([13]; 17.5 g/Ha) was 80% and the “Preemergence herbicidal activity ALOMY” value ([14]; 17.5 g/Ha) was 80%. For the same molecule, the “Preemergence herbicidal activity XANST” value ([15]; 17.5 g/Ha) was 70%, the “Preemergence herbicidal activity DIGSA” value ([16]; 17.5 g/Ha) was 80% and the “Preemergence herbicidal activity SETFA” value ([17]; 17.5 g/Ha) was 85%. The “Preemergence herbicidal activity CHEAL” value ([18]; 17.5 g/Ha) was 95%, the “Preemergence herbicidal activity IPOHE” value ([19]; 17.5 g/Ha) was 75% and the “Preemergence herbicidal activity AMARE” value ([20]; 17.5 g/Ha) was 95%. The “Preemergence herbicidal activity ABUTH” value ([21]; 17.5 g/Ha) was 85%, the “Preemergence herbicidal activity AVEFA” value (wild oats (Avena fatua) [22]; 17.5 g/Ha) was 60% and the “Preemergence herbicidal activity EPHHL” value ([23]; 17.5 g/Ha) was 85%.

For `COc1cc(OC)n2nc(NS(=O)(=O)c3c(C(F)(F)F)ccnc3F)nc2n1` [Compound 16], the “Postemergence herbicidal activity SORBI” value ([1]; 125 ppm) was 50%, the “Postemergence herbicidal activity ALOMY” value ([2]; 125 ppm) was 60% and the “Postemergence herbicidal activity STEME” value ([3]; 125 ppm) was 60%. For the same molecule, the “Postemergence herbicidal activity XANST” value ([4]; 125 ppm) was 0%, the “Postemergence herbicidal activity SETFA” value ([5]; 125 ppm) was 75% and the “Postemergence herbicidal activity CHEAL” value ([6]; 125 ppm) was 40%. For the same molecule, the “Postemergence herbicidal activity IPOHE” value ([7]; 125 ppm) was 20%, the “Postemergence herbicidal activity AMARE” value ([8]; 125 ppm) was 75% and the “Postemergence herbicidal activity ABUTH” value ([9]; 125 ppm) was 10%. The “Postemergence herbicidal activity VIOTR” value (viola (Viola tricolor); 125 ppm) was 50%, the “Postemergence herbicidal activity POLCO” value ([10]; 125 ppm) was 20% and the “Postemergence herbicidal activity AVEFA” value (wild oats (Avena fatua) [11]; 125 ppm) was 50%. The “Preemergence herbicidal activity SORBI” value ([12]; 140 g/Ha) was 40%, the “Preemergence herbicidal activity ECHCG” value ([13]; 140 g/Ha) was 0% and the “Preemergence herbicidal activity ALOMY” value ([14]; 140 g/Ha) was 40%. The “Preemergence herbicidal activity XANST” value ([15]; 140 g/Ha) was 40%, the “Preemergence herbicidal activity DIGSA” value ([16]; 140 g/Ha) was 0% and the “Preemergence herbicidal activity SETFA” value ([17]; 140 g/Ha) was 10%. The “Preemergence herbicidal activity CHEAL” value ([18]; 140 g/Ha) was 20%, the “Preemergence herbicidal activity IPOHE” value ([19]; 140 g/Ha) was 0% and the “Preemergence herbicidal activity AMARE” value ([20]; 140 g/Ha) was 85%. For the same molecule, the “Preemergence herbicidal activity ABUTH” value ([21]; 140 g/Ha) was 20%, the “Preemergence herbicidal activity AVEFA” value (wild oats (Avena fatua) [22]; 140 g/Ha) was 30% and the “Preemergence herbicidal activity EPHHL” value ([23]; 140 g/Ha) was 0%.

For `COc1cc(OC)n2nc(NS(=O)(=O)c3c(I)ccnc3OC)nc2n1` [Compound 17], the “Postemergence herbicidal activity SORBI” value ([1]; 15.6 ppm) was 90%, the “Postemergence herbicidal activity ALOMY” value ([2]; 15.6 ppm) was 90% and the “Postemergence herbicidal activity STEME” value ([3]; 15.6 ppm) was 75%. For the same molecule, the “Postemergence herbicidal activity XANST” value ([4]; 15.6 ppm) was 90%, the “Postemergence herbicidal activity SETFA” value ([5]; 15.6 ppm) was 90% and the “Postemergence herbicidal activity CHEAL” value ([6]; 15.6 ppm) was 100%. For the same molecule, the “Postemergence herbicidal activity IPOHE” value ([7]; 15.6 ppm) was 70%, the “Postemergence herbicidal activity AMARE” value ([8]; 15.6 ppm) was 100% and the “Postemergence herbicidal activity ABUTH” value ([9]; 15.6 ppm) was 78%. The “Postemergence herbicidal activity VIOTR” value (viola (Viola tricolor); 15.6 ppm) was 98%, the “Postemergence herbicidal activity POLCO” value ([10]; 15.6 ppm) was 75% and the “Postemergence herbicidal activity AVEFA” value (wild oats (Avena fatua) [11]; 15.6 ppm) was 90%. The “Preemergence herbicidal activity SORBI” value ([12]; 17.5 g/Ha) was 99%, the “Preemergence herbicidal activity ECHCG” value ([13]; 17.5 g/Ha) was 100% and the “Preemergence herbicidal activity ALOMY” value ([14]; 17.5 g/Ha) was 99%. The “Preemergence herbicidal activity XANST” value ([15]; 17.5 g/Ha) was 65%, the “Preemergence herbicidal activity DIGSA” value ([16]; 17.5 g/Ha) was 100% and the “Preemergence herbicidal activity SETFA” value ([17]; 17.5 g/Ha) was 100%. The “Preemergence herbicidal activity CHEAL” value ([18]; 17.5 g/Ha) was 100%, the “Preemergence herbicidal activity IPOHE” value ([19]; 17.5 g/Ha) was 60% and the “Preemergence herbicidal activity AMARE” value ([20]; 17.5 g/Ha) was 100%. For the same molecule, the “Preemergence herbicidal activity ABUTH” value ([21]; 17.5 g/Ha) was 75%, the “Preemergence herbicidal activity AVEFA” value (wild oats (Avena fatua) [22]; 17.5 g/Ha) was 90% and the “Preemergence herbicidal activity EPHHL” value ([23]; 17.5 g/Ha) was 100%.
